This passage reports % of control and % of inhibition results from ChEMBL document CHEMBL5465560, “Selectivity Literature for EUbOPEN Chemogenomic Library” (2024).

The structures appear in SMILES notation.

For assay [1], the target named is Casein kinase I isoform epsilon (Homo sapiens, UniProt P49674). The assay is described as follows: Selectivity interaction (KinomeScan (DiscoverX)) EUB0000666a CSNK1E. The note with it: at 10 µM.
The target of assay [2] is T1, Mitogen-activated protein kinase kinase kinase kinase 2 (Homo sapiens) (UniProt Q12851).
T1 sequence (whole entry): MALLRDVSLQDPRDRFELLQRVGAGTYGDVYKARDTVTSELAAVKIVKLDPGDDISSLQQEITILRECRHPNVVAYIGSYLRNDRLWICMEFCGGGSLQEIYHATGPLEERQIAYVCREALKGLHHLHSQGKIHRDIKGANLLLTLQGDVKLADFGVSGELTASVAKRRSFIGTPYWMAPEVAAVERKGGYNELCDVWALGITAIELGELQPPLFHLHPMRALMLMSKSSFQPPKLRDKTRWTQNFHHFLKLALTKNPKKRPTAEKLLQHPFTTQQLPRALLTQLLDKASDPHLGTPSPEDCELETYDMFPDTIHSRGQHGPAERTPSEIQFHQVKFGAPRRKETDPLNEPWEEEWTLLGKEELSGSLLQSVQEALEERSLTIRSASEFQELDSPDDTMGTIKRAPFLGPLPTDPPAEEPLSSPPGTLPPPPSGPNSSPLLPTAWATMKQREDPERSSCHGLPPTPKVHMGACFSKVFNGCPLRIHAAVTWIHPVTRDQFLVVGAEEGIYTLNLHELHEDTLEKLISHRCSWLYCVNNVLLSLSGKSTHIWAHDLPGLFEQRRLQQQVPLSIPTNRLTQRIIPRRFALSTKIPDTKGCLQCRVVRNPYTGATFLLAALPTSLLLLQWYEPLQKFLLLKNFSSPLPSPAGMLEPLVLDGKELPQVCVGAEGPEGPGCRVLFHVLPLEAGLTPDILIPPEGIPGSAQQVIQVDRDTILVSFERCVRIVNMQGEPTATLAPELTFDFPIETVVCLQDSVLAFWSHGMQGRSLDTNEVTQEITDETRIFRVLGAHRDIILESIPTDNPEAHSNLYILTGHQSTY
The assay is described as follows: Selectivity interaction (ActivX KiNativ screen (kinase selectivity in THP-1 cell lysates)) EUB0000639a MAP4K2. Type of assay: subcellular. The settings on record: lysate.

Assay [3] deals with T2, Serine/threonine-protein kinase STK11 (Homo sapiens) (UniProt Q15831).
T2 sequence (whole entry): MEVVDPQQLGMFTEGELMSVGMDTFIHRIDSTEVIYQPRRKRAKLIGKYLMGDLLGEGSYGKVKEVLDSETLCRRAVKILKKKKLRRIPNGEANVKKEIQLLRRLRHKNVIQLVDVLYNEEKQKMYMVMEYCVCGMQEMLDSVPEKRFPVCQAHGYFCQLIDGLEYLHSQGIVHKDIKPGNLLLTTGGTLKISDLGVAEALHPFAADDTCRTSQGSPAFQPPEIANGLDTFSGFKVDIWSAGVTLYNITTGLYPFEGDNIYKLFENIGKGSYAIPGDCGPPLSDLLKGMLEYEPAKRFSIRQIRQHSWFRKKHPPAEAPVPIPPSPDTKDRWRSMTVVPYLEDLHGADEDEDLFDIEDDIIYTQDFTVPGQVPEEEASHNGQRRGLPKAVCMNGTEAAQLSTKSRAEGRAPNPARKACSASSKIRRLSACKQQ
Nature of the assay: Selectivity interaction (ActivX KiNativ screen (kinase selectivity in THP-1 cell lysates)) EUB0000639a STK11. Type of assay: subcellular. The note with it: lysate.

Assay [4] concerns the target T3, Inhibitor of nuclear factor kappa-B kinase subunit beta (Homo sapiens) (UniProt O14920).
T3 sequence (whole entry): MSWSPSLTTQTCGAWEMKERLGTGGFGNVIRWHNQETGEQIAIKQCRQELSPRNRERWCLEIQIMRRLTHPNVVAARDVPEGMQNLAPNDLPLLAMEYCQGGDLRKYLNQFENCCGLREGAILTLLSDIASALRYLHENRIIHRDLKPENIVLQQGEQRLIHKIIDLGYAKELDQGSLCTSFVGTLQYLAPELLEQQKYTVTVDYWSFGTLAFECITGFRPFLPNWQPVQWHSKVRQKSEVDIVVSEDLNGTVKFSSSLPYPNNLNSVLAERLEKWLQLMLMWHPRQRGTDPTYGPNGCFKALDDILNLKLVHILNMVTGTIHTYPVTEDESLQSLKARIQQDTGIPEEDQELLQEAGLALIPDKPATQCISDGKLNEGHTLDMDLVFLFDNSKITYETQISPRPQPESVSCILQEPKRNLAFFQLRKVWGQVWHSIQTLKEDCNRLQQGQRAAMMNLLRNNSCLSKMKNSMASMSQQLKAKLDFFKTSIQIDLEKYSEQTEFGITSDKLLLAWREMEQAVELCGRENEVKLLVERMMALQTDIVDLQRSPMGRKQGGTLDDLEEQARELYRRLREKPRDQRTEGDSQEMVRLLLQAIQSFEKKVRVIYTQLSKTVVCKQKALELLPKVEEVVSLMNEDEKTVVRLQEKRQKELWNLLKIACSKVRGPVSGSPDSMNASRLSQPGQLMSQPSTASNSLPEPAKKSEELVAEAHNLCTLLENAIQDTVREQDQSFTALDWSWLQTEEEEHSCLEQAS
The note with it: at 1 µM.

Chain of Casein kinase I isoform epsilon (P49674 whole entry, looked up, canonical isoform): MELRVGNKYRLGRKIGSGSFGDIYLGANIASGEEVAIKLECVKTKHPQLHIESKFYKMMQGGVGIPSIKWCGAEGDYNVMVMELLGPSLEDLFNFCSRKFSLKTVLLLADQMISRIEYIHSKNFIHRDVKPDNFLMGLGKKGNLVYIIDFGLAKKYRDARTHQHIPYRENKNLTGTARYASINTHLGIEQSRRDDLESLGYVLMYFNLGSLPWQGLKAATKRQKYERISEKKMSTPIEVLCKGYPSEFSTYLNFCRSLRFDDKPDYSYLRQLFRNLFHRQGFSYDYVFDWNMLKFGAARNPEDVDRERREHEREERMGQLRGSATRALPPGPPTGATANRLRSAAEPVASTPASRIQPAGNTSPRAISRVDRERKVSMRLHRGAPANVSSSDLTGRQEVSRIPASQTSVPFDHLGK

In turn, `O=C(NOC[C@H](O)CO)c1ccc(F)c(F)c1Nc1ccc(I)cc1F` gave a % of control in assay [1] of 100%.
Take `CC[C@@H]1[C@H](F)C(=O)N[C@@H]1COc1nccc2cc(C(N)=O)c(OC)cc12` [ZIMLOVISERTIB]: the % of inhibition in assay [2] (at 0.01 µM) was -10%; in assay [2] (at 0.04 µM), -5.8%; in assay [2] (at 0.2 µM), -8.2%; in assay [2] (at 1 µM) it was -2.9%; in assay [2] (at 5 µM), -12.1%; in assay [3] (at 0.01 µM), -0.5%. The % of inhibition was determined as 12.2% in assay [3] (at 0.04 µM), 34.8% in assay [3] (at 0.2 µM), 58.5% in assay [3] (at 1 µM) and 85.1% in assay [3] (at 5 µM).
For the compound `Cc1ccc(-c2ccc3c(ccc4sc5c(c43)NC[C@@H](C)NC5=O)n2)cn1`, the % of inhibition in assay [4] was 0%.
